In US20250093329A1, “SCREENING OF COMPOUNDS” (THE UNIVERSITY OF TULSA, priority 2022, published 2025):

System: H293
Assay: Cytotoxicity testing, CellTiter-Blue assay, 24 hour (FIG. 3)
Assay type: cell-based
Conditions: 100 μM, 24 hour compound incubation
Experimental: The cytotoxicity tests were carried out in the following manner. Living cells are known to convert resazurin to the fluorescent compound resorufin. Test systems which rely upon this reaction are commercially available. One such test is known at the Cell Titer Blue Cell Viability test assay from Promega. Cell cultures for each of the identified cancer lines were obtained from ATCC and maintained in Dulbecco's Modified Eagle Medium (DMEM) supplemented with 10% fetal bovine serum (FBS) and pen/strep. As known to those skilled in the art, DMEM typically includes the components identified below.
The test method provides for incubating the cell cultures at temperatures which correspond to the range of body temperatures experienced by the patient from which the cancer cells were obtained. Typically, incubation temperatures will be between the temperatures of 36.1° C. and 37.2° C. In most cases incubation will occur at 37° C. Additionally, the cell cultures are kept under an atmosphere which mimics cell conditions of the tumor within the patient's body. In most cases, the tumor microenvironment (TME) is characterized by hypoxia (low oxygen) and may also be characterized by hypercapnia (increased CO2). Hypercapnia results from decreased blood flow which limits CO2 elimination. Restricted CO2 elimination leads to increased HCO3^− conversion to CO2 in order to neutralize lactate as altered tumor cell metabolism produces more CO2 than normal. Normal tissue averages about 5% oxygen with oxygen ranges from about 3% to 7.4%. […] In the case of CO2, normocapnic is around 5% CO2, while hypercapnic can rise to 10% CO2. Therefore, to mimic the environment of the tumor the method utilizes an incubator designed to provide the optimal gaseous environment corresponding to that of the tumor. Thus, the incubator will be capable of maintaining an atmosphere having an oxygen content in the range of […] and a CO2 in the range of 1% to 10%.
After allowing for proliferation of the cells, the cells were distributed across a plurality of test wells containing from 100 μL DMEM plus 10% FBS and allowed to attach to the surface of the test wells. Typically, the time for attachment will require about 12 hours to about 18 hours. […] Following treatment of the cells with the N-benzyl sulfonamide or control, the toxicity of the compound to the cells will be determined by addition of a luminescing agent. […] Subsequently, the fluorescence of resazurin is measured by excitation at 560 nm and recording the emission at 590 nm within an instrument configured to measure fluorescence intensity. Two commercially available systems are the BioTek Cytation 5 plate reader and the Promega Glomax Multi+detection system. […]

O=S(=O)(NCc1c[nH]c2ccccc12)c1ccc(Cl)cc1 [Compound 2, N-[(1H-indol-3-yl)methyl]-4-chlorobenzenesulfonamide]
effectiveness, percent reduction in cell viability (FIG. 3): effective
